Data reported in the supplement of paper PMC10307832.

Key:
Assay in all cases: relative viability (nuclei count vs DMSO), 5 days (fraction); higher = more cells survive
A-427 = test system: A-427
Outline: (§1)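 Lung cancer cell lines in 1536-well plates were dosed by pin tool the day after seeding, either with one drug alone or with a fixed anchor-drug dose plus five library-drug doses (not always all listed) in √10 steps. After 5 days, cells were fixed and their nuclei stained in one step (final 0.05% Triton X-100, 1% formaldehyde, 1 ug/ml Hoechst), then counted on 4× images. Relative viability is the nuclei count in treated wells divided by that in vehicle wells. Values are medians of duplicate plates.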

HCC-78 = test system: HCC-78
Outline: as §1

NCI-H460 = test system: NCI-H460
Outline: as §1

NCI-H1666 = test system: NCI-H1666
Outline: as §1

SK-LU-1 = test system: SK-LU-1
Outline: as §1

LC-2-ad = test system: LC-2-ad
Outline: as §1

NCI-H2009 = test system: NCI-H2009
Outline: as §1

COR-L 105 = test system: COR-L 105
Outline: as §1

NCI-H2085 = test system: NCI-H2085
Outline: as §1

UMC-11 = test system: UMC-11
Outline: as §1

EPLC-272H = test system: EPLC-272H
Outline: as §1

LU99A = test system: LU99A
Outline: as §1

HCC-366 = test system: HCC-366
Outline: as §1

NCI-H1792 = test system: NCI-H1792
Outline: as §1

LXF-289 = test system: LXF-289
Outline: as §1

NCI-H1915 = test system: NCI-H1915
Outline: as §1

HOP-62 = test system: HOP-62
Outline: as §1

`O=c1cc(-c2cccc3c2Sc2ccccc2S3)oc(N2CCOCC2)c1` + CC(C)C[C@H](NC(=O)[C@H](Cc1ccccc1)NC(=O)c1cnccn1)B(O)O [Bortezomib] (partner 0.002 µM) was tested, and the relative viability (A-427; first compound 0.08 µM) was 1.09, the relative viability (A-427; first compound 0.253 µM) was 0.977 and the relative viability (A-427; first compound 0.8 µM) was 0.999. It also gave a relative viability (A-427; first compound 2.53 µM) of 0.931, a relative viability (A-427; first compound 8 µM) of 1.03 and a relative viability (HCC-78; first compound 0.08 µM) of 0.461. For the same compound, the relative viability (HCC-78; first compound 0.253 µM) was 0.48, the relative viability (HCC-78; first compound 0.8 µM) was 0.355 and the relative viability (HCC-78; first compound 2.53 µM) was 0.482. The relative viability (HCC-78; first compound 8 µM) was 0.525, the relative viability (NCI-H460; first compound 0.08 µM) was 1.36 and the relative viability (NCI-H460; first compound 0.8 µM) was 1.12. It also gave a relative viability (NCI-H460; first compound 2.53 µM) of 1.02, a relative viability (NCI-H460; first compound 8 µM) of 1.87 and a relative viability (NCI-H1666; first compound 0.08 µM) of 0.666. It also gave a relative viability (NCI-H1666; first compound 0.253 µM) of 0.887, a relative viability (NCI-H1666; first compound 0.8 µM) of 0.559 and a relative viability (NCI-H1666; first compound 2.53 µM) of 0.793. It also gave a relative viability (NCI-H1666; first compound 8 µM) of 0.759, a relative viability (SK-LU-1; first compound 0.08 µM) of 1.12 and a relative viability (SK-LU-1; first compound 0.253 µM) of 1.18. It also gave a relative viability (SK-LU-1; first compound 0.8 µM) of 1.16, a relative viability (SK-LU-1; first compound 2.53 µM) of 1.2 and a relative viability (SK-LU-1; first compound 8 µM) of 1.91. It also gave a relative viability (LC-2-ad; first compound 0.08 µM) of 0.989, a relative viability (LC-2-ad; first compound 0.253 µM) of 0.827 and a relative viability (LC-2-ad; first compound 0.8 µM) of 1.06. It also gave a relative viability (LC-2-ad; first compound 2.53 µM) of 1.02, a relative viability (LC-2-ad; first compound 8 µM) of 1.07 and a relative viability (NCI-H2009; first compound 0.08 µM) of 0.936. The relative viability (NCI-H2009; first compound 0.253 µM) was 1.1, the relative viability (NCI-H2009; first compound 0.8 µM) was 0.952 and the relative viability (NCI-H2009; first compound 2.53 µM) was 0.871. It also gave a relative viability (NCI-H2009; first compound 8 µM) of 0.795, a relative viability (COR-L 105; first compound 0.08 µM) of 0.669 and a relative viability (COR-L 105; first compound 0.253 µM) of 0.715. The relative viability (COR-L 105; first compound 0.8 µM) was 0.741, the relative viability (COR-L 105; first compound 2.53 µM) was 0.795 and the relative viability (COR-L 105; first compound 8 µM) was 0.733. For the same compound, the relative viability (NCI-H2085; first compound 0.08 µM) was 1.01, the relative viability (NCI-H2085; first compound 0.253 µM) was 1.11 and the relative viability (NCI-H2085; first compound 0.8 µM) was 1.14. It also gave a relative viability (NCI-H2085; first compound 2.53 µM) of 0.94, a relative viability (NCI-H2085; first compound 8 µM) of 1.09 and a relative viability (UMC-11; first compound 0.08 µM) of 0.774. It also gave a relative viability (UMC-11; first compound 0.253 µM) of 1.19, a relative viability (UMC-11; first compound 0.8 µM) of 1.24 and a relative viability (UMC-11; first compound 2.53 µM) of 0.535. The relative viability (UMC-11; first compound 8 µM) was 1.01, the relative viability (EPLC-272H; first compound 0.08 µM) was 0.806 and the relative viability (EPLC-272H; first compound 0.253 µM) was 1.09. For the same compound, the relative viability (EPLC-272H; first compound 0.8 µM) was 1.02, the relative viability (EPLC-272H; first compound 2.53 µM) was 0.721 and the relative viability (EPLC-272H; first compound 8 µM) was 0.802. It also gave a relative viability (LU99A; first compound 0.08 µM) of 1.18, a relative viability (LU99A; first compound 0.253 µM) of 1.07 and a relative viability (LU99A; first compound 0.8 µM) of 1.5. The relative viability (LU99A; first compound 2.53 µM) was 1.03, the relative viability (LU99A; first compound 8 µM) was 1.3 and the relative viability (HCC-366; first compound 0.08 µM) was 1.09. The relative viability (HCC-366; first compound 0.253 µM) was 1.65, the relative viability (HCC-366; first compound 0.8 µM) was 1.12 and the relative viability (HCC-366; first compound 2.53 µM) was 1.03. The relative viability (HCC-366; first compound 8 µM) was 1.28, the relative viability (NCI-H1792; first compound 0.253 µM) was 1.4 and the relative viability (NCI-H1792; first compound 0.8 µM) was 1.05. It also gave a relative viability (NCI-H1792; first compound 2.53 µM) of 0.904, a relative viability (NCI-H1792; first compound 8 µM) of 1.27 and a relative viability (LXF-289; first compound 0.08 µM) of 0.994. For the same compound, the relative viability (LXF-289; first compound 0.253 µM) was 0.976, the relative viability (LXF-289; first compound 0.8 µM) was 1.08 and the relative viability (LXF-289; first compound 2.53 µM) was 0.988. It also gave a relative viability (LXF-289; first compound 8 µM) of 1.03, a relative viability (NCI-H1915; first compound 0.08 µM) of 1.07 and a relative viability (NCI-H1915; first compound 0.253 µM) of 1.03. For the same compound, the relative viability (NCI-H1915; first compound 0.8 µM) was 1.09, the relative viability (NCI-H1915; first compound 2.53 µM) was 0.974 and the relative viability (NCI-H1915; first compound 8 µM) was 1.16. The relative viability (HOP-62; first compound 0.08 µM) was 0.734, the relative viability (HOP-62; first compound 0.253 µM) was 1.27 and the relative viability (HOP-62; first compound 0.8 µM) was 0.735. For the same compound, the relative viability (HOP-62; first compound 2.53 µM) was 0.713 and the relative viability (HOP-62; first compound 8 µM) was 1.08.
